This note sets out measurements from paper PMC3466270 (PLoS ONE, 2012).

The target of the assay is RSL lectin (fucose binding lectin RSL) (Ralstonia pseudosolanacearum, UniProt Q8XXK6). Description: biochemical.

Take `CO[C@@H]1O[C@@H](C)[C@@H](O)[C@@H](O)[C@@H]1O` [α-L-Me-fucoside]: the affinity, expressed as Kd, was 600 nM.

For orientation: Kd means the equilibrium constant for the complex coming apart. Lower therefore signals a tighter complex.
